pIC50, pKd: −log10 of the molar value. Read-outs that look alike come from different tables or passages of the source.
Assays:
TGFBR1 = molecular target: T1, TGFBR1 (Homo sapiens, UniProt P36897); assay: TGFBR1 binding KD (Table S3); settings: read-out: TGFBR1 KD
T1 sequence (P36897 34-503): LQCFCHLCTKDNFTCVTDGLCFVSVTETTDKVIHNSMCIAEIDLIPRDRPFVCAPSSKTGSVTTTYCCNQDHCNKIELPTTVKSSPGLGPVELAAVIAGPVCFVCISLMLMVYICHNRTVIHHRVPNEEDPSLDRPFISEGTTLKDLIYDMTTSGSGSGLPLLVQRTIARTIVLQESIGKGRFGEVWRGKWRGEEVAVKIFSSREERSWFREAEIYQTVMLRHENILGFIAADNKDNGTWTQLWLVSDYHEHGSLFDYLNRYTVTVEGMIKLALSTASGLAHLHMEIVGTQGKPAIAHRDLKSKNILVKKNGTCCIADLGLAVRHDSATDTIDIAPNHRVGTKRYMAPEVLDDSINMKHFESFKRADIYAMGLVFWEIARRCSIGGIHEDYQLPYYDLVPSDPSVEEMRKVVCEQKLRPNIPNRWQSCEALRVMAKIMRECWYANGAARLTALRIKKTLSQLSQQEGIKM
Description: (§1) Supplement KAUP_A_2095834_SM5251.zip/Supplementary Tables R7.xlsx, sheet "Table S3 - Analogues"

endogenous TFE3 = assay: TFE3 nuclear translocation, immunocytochemistry high-content imaging; type: cell-based; settings: for EC50 / Best-Fit Values Span: 24 h, SH-SY5Y; for EC50: read-out: Best-Fit Values EC50 (converted); for Summary: activity in TFE3 assays compared with original NK-140, OT activity; for Best-Fit Values Span: TFE3 assay concentration response
PRKD1 [1] = molecular target: T2, PRKD1 (Homo sapiens, UniProt Q15139); assay: PRKD1 binding KD (Table S3); settings: relation sign
T2 sequence (Q15139 1-912): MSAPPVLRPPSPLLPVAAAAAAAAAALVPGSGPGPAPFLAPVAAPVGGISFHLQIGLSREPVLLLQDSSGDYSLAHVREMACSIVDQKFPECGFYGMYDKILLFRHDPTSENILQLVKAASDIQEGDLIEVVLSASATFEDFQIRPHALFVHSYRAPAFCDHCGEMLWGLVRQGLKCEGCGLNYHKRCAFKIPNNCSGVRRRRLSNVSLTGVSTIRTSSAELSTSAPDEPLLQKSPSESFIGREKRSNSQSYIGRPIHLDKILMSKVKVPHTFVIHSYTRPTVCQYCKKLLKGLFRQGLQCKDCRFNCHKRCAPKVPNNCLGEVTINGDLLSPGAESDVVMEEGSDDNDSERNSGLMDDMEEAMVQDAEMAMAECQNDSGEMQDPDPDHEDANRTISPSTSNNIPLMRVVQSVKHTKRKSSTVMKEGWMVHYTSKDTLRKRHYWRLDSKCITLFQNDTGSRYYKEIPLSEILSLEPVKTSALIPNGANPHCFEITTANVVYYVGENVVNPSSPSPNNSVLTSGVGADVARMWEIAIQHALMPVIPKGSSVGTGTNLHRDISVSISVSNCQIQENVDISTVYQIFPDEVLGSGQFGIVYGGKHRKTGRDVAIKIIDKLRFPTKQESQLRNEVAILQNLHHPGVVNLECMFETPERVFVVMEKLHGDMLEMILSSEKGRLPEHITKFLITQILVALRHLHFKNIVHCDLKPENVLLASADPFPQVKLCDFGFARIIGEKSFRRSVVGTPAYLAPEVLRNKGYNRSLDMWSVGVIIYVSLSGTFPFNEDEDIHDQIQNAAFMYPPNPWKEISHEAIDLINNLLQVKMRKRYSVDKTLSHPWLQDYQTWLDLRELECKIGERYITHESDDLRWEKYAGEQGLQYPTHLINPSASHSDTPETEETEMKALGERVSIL
Description: as §1

TGFBR2 = TGFBR2 (Homo sapiens, UniProt P37173); settings: cited from earlier work
Sequence of TGFBR2 (P37173 23-567): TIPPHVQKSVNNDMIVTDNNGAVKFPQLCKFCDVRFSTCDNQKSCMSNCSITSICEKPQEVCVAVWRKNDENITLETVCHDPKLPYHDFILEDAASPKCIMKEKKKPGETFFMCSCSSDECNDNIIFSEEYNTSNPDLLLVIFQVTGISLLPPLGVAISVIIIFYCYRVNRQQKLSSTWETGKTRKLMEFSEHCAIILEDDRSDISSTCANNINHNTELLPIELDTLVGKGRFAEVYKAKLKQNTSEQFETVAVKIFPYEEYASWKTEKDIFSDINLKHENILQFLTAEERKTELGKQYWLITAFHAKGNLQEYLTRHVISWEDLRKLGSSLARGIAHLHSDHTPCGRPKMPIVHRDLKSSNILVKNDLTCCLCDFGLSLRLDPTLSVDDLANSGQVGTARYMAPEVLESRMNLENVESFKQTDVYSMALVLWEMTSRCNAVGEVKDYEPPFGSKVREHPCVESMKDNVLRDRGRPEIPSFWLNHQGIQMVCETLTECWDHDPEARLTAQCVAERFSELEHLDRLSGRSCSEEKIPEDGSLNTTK

CSNK1E = CSNK1E (Homo sapiens, UniProt P49674); settings: cited from earlier work
Sequence of CSNK1E (P49674 whole entry): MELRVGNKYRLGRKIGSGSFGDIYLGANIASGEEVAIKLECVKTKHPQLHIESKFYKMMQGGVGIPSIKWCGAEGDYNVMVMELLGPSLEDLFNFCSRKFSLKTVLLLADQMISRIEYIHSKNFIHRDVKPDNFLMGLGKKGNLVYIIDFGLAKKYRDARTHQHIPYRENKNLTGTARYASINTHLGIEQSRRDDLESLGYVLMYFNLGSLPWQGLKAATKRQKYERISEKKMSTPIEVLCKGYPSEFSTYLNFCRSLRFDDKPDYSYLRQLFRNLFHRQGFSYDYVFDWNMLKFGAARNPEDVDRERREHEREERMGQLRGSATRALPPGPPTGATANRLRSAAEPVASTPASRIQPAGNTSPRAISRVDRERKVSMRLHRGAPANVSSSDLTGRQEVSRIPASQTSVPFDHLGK

PRKD2 [2] = molecular target: T3, PRKD2 (Homo sapiens, UniProt Q9BZL6); settings: cited from earlier work
T3 sequence (Q9BZL6 1-878): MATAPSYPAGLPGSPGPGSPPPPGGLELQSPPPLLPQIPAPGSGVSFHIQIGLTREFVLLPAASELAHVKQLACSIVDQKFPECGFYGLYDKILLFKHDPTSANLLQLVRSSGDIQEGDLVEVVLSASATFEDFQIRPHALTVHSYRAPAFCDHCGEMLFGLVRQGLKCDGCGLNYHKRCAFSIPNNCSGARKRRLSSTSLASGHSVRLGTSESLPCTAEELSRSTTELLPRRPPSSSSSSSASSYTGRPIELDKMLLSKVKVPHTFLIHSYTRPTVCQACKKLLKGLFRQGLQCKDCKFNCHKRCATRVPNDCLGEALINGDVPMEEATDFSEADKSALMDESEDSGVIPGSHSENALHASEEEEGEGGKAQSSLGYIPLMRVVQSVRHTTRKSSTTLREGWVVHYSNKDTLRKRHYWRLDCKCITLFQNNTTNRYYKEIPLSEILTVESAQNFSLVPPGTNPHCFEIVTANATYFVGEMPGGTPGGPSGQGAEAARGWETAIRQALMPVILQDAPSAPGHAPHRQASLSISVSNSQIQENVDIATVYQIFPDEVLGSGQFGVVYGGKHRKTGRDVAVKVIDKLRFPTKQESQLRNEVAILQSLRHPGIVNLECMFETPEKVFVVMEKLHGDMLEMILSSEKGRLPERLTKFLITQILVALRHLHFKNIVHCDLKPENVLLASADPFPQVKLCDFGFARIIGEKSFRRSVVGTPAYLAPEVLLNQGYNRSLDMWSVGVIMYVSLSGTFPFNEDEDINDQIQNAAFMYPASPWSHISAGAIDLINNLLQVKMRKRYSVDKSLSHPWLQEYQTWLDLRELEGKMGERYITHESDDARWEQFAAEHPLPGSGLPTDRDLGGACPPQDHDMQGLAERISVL

JAK1(JH2) = molecular target: T4, JAK1(JH2) (Homo sapiens, UniProt P23458); settings: cited from earlier work
T4 construct: JAK1(JH2)
T4 sequence (P23458 583-855 limits assumed): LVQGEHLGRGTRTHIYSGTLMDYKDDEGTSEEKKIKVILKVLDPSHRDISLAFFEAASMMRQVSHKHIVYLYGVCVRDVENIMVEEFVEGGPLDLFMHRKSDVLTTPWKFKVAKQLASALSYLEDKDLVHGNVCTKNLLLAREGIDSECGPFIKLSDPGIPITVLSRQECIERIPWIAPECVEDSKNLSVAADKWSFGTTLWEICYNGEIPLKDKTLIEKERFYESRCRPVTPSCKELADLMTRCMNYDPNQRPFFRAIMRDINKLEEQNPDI

CIT = CIT (Homo sapiens, UniProt O14578); settings: cited from earlier work
PRKD3 = molecular target: T5, PRKD3 (Homo sapiens, UniProt O94806); settings: cited from earlier work
T5 sequence (O94806 1-890): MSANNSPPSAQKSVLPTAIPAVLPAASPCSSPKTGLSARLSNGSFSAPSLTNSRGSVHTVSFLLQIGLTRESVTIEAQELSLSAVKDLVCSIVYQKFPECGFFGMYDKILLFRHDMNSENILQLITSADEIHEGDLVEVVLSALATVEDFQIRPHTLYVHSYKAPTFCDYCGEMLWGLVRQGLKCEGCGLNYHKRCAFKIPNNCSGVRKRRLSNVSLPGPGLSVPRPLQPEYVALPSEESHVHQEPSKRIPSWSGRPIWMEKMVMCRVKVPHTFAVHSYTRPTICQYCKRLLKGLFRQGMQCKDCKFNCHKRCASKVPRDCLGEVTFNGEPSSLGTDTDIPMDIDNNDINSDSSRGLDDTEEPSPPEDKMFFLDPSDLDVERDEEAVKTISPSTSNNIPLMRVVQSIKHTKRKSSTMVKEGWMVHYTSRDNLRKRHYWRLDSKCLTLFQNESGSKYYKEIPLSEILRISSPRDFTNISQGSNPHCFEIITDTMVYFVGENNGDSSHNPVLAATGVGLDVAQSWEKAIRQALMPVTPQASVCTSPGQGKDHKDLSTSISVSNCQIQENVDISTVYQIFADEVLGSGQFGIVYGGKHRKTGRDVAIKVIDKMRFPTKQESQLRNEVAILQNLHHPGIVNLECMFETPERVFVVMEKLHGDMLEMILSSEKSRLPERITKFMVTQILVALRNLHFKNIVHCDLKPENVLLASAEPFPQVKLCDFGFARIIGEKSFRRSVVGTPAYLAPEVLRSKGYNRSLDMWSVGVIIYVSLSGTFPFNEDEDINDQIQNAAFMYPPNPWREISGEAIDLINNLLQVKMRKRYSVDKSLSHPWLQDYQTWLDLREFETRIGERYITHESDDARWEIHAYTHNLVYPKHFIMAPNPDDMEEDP

BMPR1B = BMPR1B (Homo sapiens, UniProt O00238); settings: cited from earlier work
CDC42BPG/DMPK2 = CDC42BPG/DMPK2 (Homo sapiens, UniProt Q6DT37); settings: cited from earlier work
PRKD1 [3] = molecular target: T2, PRKD1; settings: cited from earlier work
PIKFYVE = PIKFYVE (Homo sapiens, UniProt Q9Y2I7); settings: cited from earlier work
Sequence of PIKFYVE (Q9Y2I7 whole entry): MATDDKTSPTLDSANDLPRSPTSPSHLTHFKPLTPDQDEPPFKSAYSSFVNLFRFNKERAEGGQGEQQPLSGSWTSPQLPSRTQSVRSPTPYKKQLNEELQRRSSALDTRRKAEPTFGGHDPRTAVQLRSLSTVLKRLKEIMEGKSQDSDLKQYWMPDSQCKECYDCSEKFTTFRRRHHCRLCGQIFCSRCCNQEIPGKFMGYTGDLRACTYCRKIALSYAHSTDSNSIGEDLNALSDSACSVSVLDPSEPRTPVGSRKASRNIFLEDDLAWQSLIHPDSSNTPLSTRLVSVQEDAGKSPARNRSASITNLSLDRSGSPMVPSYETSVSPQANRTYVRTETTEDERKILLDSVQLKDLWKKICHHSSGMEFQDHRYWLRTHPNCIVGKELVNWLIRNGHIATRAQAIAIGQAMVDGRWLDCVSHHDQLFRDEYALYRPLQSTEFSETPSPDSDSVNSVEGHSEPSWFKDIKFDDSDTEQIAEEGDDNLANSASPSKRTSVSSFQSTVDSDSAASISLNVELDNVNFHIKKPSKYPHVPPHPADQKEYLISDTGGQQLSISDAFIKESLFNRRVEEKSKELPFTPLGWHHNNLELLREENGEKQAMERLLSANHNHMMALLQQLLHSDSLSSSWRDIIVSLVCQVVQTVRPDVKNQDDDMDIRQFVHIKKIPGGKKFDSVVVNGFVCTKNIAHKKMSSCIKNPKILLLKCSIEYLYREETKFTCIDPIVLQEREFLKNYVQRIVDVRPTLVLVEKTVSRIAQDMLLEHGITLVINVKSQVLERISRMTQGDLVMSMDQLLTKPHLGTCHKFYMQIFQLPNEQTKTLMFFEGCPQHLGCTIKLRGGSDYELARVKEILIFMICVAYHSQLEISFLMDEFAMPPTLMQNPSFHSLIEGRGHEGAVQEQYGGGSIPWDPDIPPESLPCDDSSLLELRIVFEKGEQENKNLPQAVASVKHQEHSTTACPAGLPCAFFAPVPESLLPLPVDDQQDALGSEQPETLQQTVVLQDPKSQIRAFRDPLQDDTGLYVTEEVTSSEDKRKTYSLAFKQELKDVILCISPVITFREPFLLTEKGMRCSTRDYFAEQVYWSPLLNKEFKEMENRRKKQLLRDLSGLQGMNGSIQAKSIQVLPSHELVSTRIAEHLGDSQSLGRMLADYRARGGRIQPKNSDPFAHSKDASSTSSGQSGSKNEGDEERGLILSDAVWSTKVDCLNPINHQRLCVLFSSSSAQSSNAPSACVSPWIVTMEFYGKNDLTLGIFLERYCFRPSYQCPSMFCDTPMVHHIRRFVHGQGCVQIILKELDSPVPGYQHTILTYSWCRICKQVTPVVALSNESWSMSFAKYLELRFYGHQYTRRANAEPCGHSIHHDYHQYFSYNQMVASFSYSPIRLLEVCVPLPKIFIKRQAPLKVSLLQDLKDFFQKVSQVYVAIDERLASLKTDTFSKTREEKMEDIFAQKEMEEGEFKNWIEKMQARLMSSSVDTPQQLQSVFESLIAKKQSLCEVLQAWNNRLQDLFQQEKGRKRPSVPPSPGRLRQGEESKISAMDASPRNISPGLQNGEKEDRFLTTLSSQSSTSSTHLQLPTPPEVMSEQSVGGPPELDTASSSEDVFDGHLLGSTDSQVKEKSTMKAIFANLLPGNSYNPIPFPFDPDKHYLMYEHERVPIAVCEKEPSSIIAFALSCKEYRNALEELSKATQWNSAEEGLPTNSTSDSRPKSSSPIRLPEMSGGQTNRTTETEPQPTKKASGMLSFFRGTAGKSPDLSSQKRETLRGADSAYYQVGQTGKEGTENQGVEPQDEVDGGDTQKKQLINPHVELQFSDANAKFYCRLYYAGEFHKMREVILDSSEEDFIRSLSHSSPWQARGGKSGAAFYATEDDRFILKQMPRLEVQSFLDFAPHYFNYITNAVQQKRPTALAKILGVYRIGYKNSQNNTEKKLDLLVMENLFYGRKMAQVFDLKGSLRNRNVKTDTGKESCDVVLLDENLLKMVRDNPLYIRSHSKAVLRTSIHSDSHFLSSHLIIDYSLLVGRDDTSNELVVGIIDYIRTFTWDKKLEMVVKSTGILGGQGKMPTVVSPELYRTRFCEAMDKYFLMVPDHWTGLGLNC

MTOR = MTOR (Homo sapiens, UniProt P42345); settings: cited from earlier work
ACVR1B = molecular target: T6, ACVR1B (Homo sapiens, UniProt P36896); settings: cited from earlier work
T6 sequence (P36896 24-505): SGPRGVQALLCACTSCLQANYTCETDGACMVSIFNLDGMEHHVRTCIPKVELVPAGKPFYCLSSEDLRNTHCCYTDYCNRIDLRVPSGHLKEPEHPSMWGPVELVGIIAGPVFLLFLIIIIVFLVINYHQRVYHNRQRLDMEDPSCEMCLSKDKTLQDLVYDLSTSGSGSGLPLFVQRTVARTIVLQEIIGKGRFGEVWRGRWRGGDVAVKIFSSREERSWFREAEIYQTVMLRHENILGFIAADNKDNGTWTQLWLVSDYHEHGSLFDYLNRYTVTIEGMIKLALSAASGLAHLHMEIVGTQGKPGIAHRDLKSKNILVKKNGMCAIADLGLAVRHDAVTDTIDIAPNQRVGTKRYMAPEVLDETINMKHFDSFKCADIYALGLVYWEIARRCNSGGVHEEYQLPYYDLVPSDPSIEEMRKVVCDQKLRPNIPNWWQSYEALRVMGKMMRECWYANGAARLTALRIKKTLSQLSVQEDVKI

CSNK1D = CSNK1D (Homo sapiens, UniProt P48730); settings: cited from earlier work
CDC42BPB/MRCKB = CDC42BPB/MRCKB (Homo sapiens, UniProt Q9Y5S2); settings: cited from earlier work
Sequence of CDC42BPB/MRCKB (Q9Y5S2 whole entry): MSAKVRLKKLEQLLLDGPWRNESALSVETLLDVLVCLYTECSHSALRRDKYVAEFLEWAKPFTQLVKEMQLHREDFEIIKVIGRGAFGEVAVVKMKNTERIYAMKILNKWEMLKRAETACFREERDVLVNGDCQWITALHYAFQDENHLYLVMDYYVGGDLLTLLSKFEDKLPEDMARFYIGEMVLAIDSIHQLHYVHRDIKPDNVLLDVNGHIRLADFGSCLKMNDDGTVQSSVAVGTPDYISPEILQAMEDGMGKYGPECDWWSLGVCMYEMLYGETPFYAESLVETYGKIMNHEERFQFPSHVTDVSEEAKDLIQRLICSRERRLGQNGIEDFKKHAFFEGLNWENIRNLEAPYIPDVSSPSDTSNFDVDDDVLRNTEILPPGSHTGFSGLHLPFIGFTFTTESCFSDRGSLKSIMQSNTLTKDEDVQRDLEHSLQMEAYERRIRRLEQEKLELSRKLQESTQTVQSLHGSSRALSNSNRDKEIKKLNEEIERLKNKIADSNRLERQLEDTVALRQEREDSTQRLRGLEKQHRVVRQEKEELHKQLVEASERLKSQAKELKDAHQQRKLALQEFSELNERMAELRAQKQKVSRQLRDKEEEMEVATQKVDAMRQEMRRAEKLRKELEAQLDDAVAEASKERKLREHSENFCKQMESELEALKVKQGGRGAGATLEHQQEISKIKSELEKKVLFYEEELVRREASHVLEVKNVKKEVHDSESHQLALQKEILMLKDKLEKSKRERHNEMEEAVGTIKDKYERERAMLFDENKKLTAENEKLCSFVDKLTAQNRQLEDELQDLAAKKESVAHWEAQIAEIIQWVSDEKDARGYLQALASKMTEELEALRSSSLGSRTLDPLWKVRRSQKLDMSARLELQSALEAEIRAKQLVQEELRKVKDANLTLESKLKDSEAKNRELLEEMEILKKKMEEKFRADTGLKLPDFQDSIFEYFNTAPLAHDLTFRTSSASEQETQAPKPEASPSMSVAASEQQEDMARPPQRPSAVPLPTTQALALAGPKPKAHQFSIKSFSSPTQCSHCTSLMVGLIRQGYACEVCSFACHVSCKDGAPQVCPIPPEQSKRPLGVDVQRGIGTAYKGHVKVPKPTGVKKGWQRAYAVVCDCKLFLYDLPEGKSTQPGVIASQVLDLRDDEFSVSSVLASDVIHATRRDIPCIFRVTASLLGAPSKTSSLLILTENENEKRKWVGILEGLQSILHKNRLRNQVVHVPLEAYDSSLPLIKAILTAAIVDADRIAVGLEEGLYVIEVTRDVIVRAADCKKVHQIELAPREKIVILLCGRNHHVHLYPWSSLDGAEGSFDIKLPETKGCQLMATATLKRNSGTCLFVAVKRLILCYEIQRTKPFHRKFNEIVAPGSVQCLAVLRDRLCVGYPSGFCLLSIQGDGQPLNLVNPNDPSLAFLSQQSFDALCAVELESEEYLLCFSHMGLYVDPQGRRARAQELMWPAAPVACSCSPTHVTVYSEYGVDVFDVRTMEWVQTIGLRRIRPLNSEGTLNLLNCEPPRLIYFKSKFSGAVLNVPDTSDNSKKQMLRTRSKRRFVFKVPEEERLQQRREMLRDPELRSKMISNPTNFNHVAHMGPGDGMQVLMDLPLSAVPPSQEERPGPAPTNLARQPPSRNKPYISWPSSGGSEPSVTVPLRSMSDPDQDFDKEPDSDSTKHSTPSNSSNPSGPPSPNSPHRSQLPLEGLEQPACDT

PRKD1 [4] = molecular target: T2, PRKD1; settings: cited from earlier work; remark: listed apart in the source
PRKD2 [5] = molecular target: T3, PRKD2; settings: read-out: IC50 PRKD2; cited from earlier work
[6] = TFE3 assay, second EC50 of biphasic/bell-shaped fit or OT (off-target) activity, unit inferred

Description for SH-SY5Y cells: Total cell lysis with 5 µL 5% Triton-X 100 (Sigma-Aldrich, T8787) is used as a positive control for the assay and toxicity is expressed as a percentage of luminescence under DMSO conditions.

`Cc1cccc(-c2nc(Nc3ccc4nnn(C)c4c3)c3ccccc3n2)n1` [NK222] gave a pKd (TGFBR1) of under 5.00, an EC50 (endogenous TFE3; [6]) of 3.12 µM and an EC50 (endogenous TFE3; TFE3 assay, µM) of 0.22 µM. For the same compound, the Summary (endogenous TFE3) was “Stronger, Some OT activity”.
With `Cc1cccc(-c2nc(Oc3ccc4scnc4c3)c3ccccc3n2)n1` [NK220] the pKd (TGFBR1) was under 5.00, the “Best-Fit Values Span” value (endogenous TFE3) was 0.80 and the Summary (endogenous TFE3) was “Inactive”.
Compound `COc1ccc(Nc2nc(-c3cccc(C)n3)nc3ccccc23)cc1` [NK170] has a pKd (PRKD1 [1]) of 6.11, an EC50 (endogenous TFE3; Homo sapiens) of 0.85 µM and an EC50 (endogenous TFE3; Homo sapiens, TFE3 assay, µM) of 0.83 µM. For the same compound, the Summary (endogenous TFE3) was “Weaker, Strong OT activity”.
For `Cc1cccc(-c2nc(Nc3ccc4[nH]ncc4c3)c3ccccc3n2)n1` [GW857175], the “KINOMEscan binding TGFBR2” value (TGFBR2) is listed as 0%, the “KINOMEscan binding CSNK1E” value (CSNK1E) is listed as 28% and the “KINOMEscan binding PRKD2” value (PRKD2 [2]) is listed as 99.9%. For the same compound, the “KINOMEscan binding JAK1(JH2)” value (JAK1(JH2)) was 83%, the “KINOMEscan binding CIT” value (CIT) was 9% and the “KINOMEscan binding PRKD3” value (PRKD3) was 98.1%. For the same compound, the “KINOMEscan binding BMPR1B” value (BMPR1B) was 34%, the “KINOMEscan binding CDC42BPG/DMPK2” value (CDC42BPG/DMPK2) was 72% and the “KINOMEscan binding PRKD1” value (PRKD1 [3]) was 99.8%. For the same compound, the “KINOMEscan binding PIKFYVE” value (PIKFYVE) was 85%, the “KINOMEscan binding MTOR” value (MTOR) was 0% and the “KINOMEscan binding ACVR1B” value (ACVR1B) was 100%. The “KINOMEscan binding CSNK1D” value (CSNK1D) was 28% and the “KINOMEscan binding CDC42BPB/MRCKB” value (CDC42BPB/MRCKB) was 72%.
In the case of `CC[C@@H](N)CNc1ccnc(-c2cc(-c3cnn(C)c3)ccc2O)n1.Cl.Cl` [CRT0066101, reference compound], the “Cellular toxicity (AK release and nuclear count, in words)” value (SH-SY5Y cells) is given as “pronounced cellular toxicity”, the “Concentrations toxic to cells (reduction in nuclear count and increase in AK signal)” value (SH-SY5Y cells) is given as “above 1 µM” and the pIC50 (PRKD1 [4]) is given as 9.00. The pIC50 (PRKD2 [5]) was 8.60.
In the case of `Cc1cccc(-c2nc(Nc3ccc4ccsc4c3)c3ccccc3n2)n1` [NK219], the pKd (PRKD1 [1]) was 6.19, the EC50 (endogenous TFE3; Homo sapiens) was 2.51 µM and the EC50 (endogenous TFE3; Homo sapiens, TFE3 assay, µM) was 2.5 µM. For the same compound, the “Best-Fit Values Span” value (endogenous TFE3) was 44.67 and the Summary (endogenous TFE3) was “Weaker, Strong OT activity”.
`Cc1cccc(-c2nc(Nc3ccc4nc(C)sc4c3)c3ccccc3n2)n1` [NK165] showed a pKd (TGFBR1) of under 5.00, an EC50 (endogenous TFE3; [6]) of 3.8 µM and an EC50 (endogenous TFE3; TFE3 assay, µM) of 0.58 µM. The Summary (endogenous TFE3) was “Stronger, Some OT activity”.
For `Cc1cccc(-c2nc(Nc3ccc4nn(C)nc4c3)c3ccccc3n2)n1` [NK223], the pKd (TGFBR1) was under 5.00, the “Best-Fit Values Span” value (endogenous TFE3) was 88.41 and the EC50 (endogenous TFE3; [6]) was 1.34 µM. For the same compound, the Summary (endogenous TFE3) was “Only OT activity”.
